Residues, ends and D or L forms follow the SMILES beside them. *: point of attachment. Tos = Cc1ccc(S(=O)(=O)*)cc1
| SMILES | melting point |
| --- | --- |
| CC1(C)OC(=O)Nc2ccc(-c3cccc(C#CC#N)c3)cc21 | 212 to 213 °C |
| N#CC(=Cc1cc(O)c(O)c(C#N)c1)C(=O)Nc1cccc(Cl)c1 | 236 to 240 °C |
| COc1ccc(S(=O)(=O)C(C)(Cc2ccc(OCCN3CCCCCC3)cc2)C(=O)NO)cc1 (stereo not drawn) | 68 °C |
| O=C(Nc1ccncn1)NN1CC=CCC1 | 188 °C |
| Cc1ccc(C(=S)CCCCCl)cc1 | 87 to 89 °C |
| CCOCCc1nnc(S)n1N | 123 to 124 °C |
| Cc1ccc(S(=O)(=O)N2CCC[C@H]2C(=O)N[C@@H](CC(=O)O)C(=O)O)cc1 (Tos-Pro-Asp-OH) | 153 to 155 °C |
| COC[C@H]1CC[C@@H](n2c(=O)[nH]c3c(C(N)=O)nc(-c4cccc(O)c4)nc32)CC1 | 324 to 326 °C |
| CC(CNC(=O)N(CCN(C)C(=O)OC(C)(C)C)CCC12CC3CC(CC(C3)C1)C2)Cc1ccncc1 (single isomer, unassigned; (+)) | 123 to 124 °C |
| OC(c1ccc(Cl)cc1)(c1ccc(Cl)cc1)C1CCNCC1 | 184 to 188 °C |
| CC(C)(C)OC(=O)N1CCN(C(=O)CI)CC1 | 69 to 71 °C |
| O=C(c1ccc2ncsc2c1)N1CCC[C@H](c2nc(-c3ccc(F)cc3)no2)C1 | 63 to 64 °C |
| COc1cccc2c1C1CN(C)CCN1c1ccccc1C2O (stereo not drawn) | 217 °C |
| O=C(Nc1ccc(N2CCOCC2=O)cc1)[C@H]1CCCN1C(=O)c1ccc(Cl)s1 | 195 °C |
| CCN(CC)C(=O)NC1CC2c3cccc4[nH]c(C#Cc5ccc(C#N)cc5)c(c34)CC2N(C)C1 (stereo not drawn) | 150 to 151 °C |
| CCCCCCCCC1C=CC(/C=C(\C)c2ccc(C(=O)O)o2)=C2N=C3CCCCC3=C21 (stereo not drawn) | 160 to 162 °C |
| Cc1ccc(C#N)c(Sc2ccc(F)cc2)c1 | 93 to 96 °C |
| CCCCCCCCCCCCCCCCC(O)CBr (stereo not drawn) | 53.5 to 54.5 °C |
| CC1=C(c2ccccc2)C(=O)N(C(C)(C)c2cc(Cl)c(F)c(Cl)c2)CC1 | 154 to 159 °C |
| CN(C)c1ccc(C=C2C=C(C(C)(C)C)C(=O)C(C(C)(C)C)=C2)cc1 | 175 °C |
| O=C1CC[C@@H]([N+](=O)[O-])[C@H](c2ccccc2)N1 (relative stereo) | 174 to 175 °C |
| CC(C)=CCCC(C)=CCCC(C)=CCCC(C)=CC=CC(C)=CC(=O)O | 45.5 to 46.5 °C |
| COc1ccccc1-c1ccc(C(=O)N2Cc3ccc(C(=O)NC(CO)c4ccccc4)n3Cc3ccccc32)cc1 (stereo not drawn) | 195 to 196 °C |
| O=C1c2ccccc2C(OCCCl)N1c1ccccc1 (stereo not drawn) | 71 °C |
| O=c1[nH]c2ccc(F)cc2c(=O)n1-c1ccc(Cl)cc1Cl | 313 to 314 °C |
| Cc1nc2ccc(N3CCN[C@H](C)C3)nn2c1-c1ccnc2[nH]ccc12 | 202 to 204 °C |
| c1ccc(COc2ccc3c(ccn3Cc3ccncc3)c2)cc1 | 124 to 125 °C |
| Cc1nnc(-c2ccc3occ(-c4cccc(F)c4F)c3c2)o1 | 112 to 113 °C |

| SMILES | melting point |
| --- | --- |
| Cc1cscc1NC(=S)NC1CCCCC1N (stereo not drawn) | 205 to 210 °C |
| CC12CCC(=O)C([N+](=O)[O-])=C1CCC1C2CCC2(C)C(O)CCC12 (stereo not drawn) | 158 to 160 °C |
| Cn1cncc1C(O)(c1ccc(CO)cc1)c1ccc2c(c1)c(-c1cccc(Cl)c1)cc(=O)n2C (stereo not drawn) | 273 °C |
| N#CC(=Cc1ccc(F)cc1[N+](=O)[O-])C(N)=O | 278 to 279 °C |
| O=C(/C=C/c1ccn(S(=O)(=O)c2ccc(-c3ccccn3)s2)c1)NO | 181 to 182 °C |
| CC(C)(C)OC(=O)N1CCO[C@@H](c2ccc(C#N)cc2)C1 | 104 °C |
| O=C(Oc1ccccc1)N1C=CC(c2c(-c3ccc(F)cc3)nc3n2CCS3)C=C1 | 164 to 166 °C |
| O=c1[nH]nc(CN2CC[C@H](OCc3cc(C(F)(F)F)cc(C(F)(F)F)c3)[C@H](c3ccccc3)C2)[nH]1 (relative stereo) | 89 to 91 °C |
| O=S(=O)(c1ccc(Cl)cc1)C(c1cc(F)ccc1F)c1cc(CO)ncc1Br (stereo not drawn) | 172 to 173 °C |
| Cc1cc(-n2cncn2)ccc1[N+](=O)[O-] | 116 to 117 °C |
| O=C(NCCSCc1ccc(Cl)cc1)c1c(Cl)cccc1Cl | 104 to 106 °C |
| COc1cccc(C23CCN(Cc4ccccc4)C(CC(=O)C2)C3)c1 (stereo not drawn) | 108 to 109 °C |
| CC1(C)OC(C=Cc2ccc(Cl)cc2)=CC1=O | 91 to 92 °C |
| COc1ccc(Cl)cc1C1(F)C(=O)Nc2ccc(Br)cc21 (stereo not drawn) | 206 to 208 °C |
| Cn1c(=O)c2conc2n(C2CCCCC2)c1=O | 194 to 197 °C |
| O=C(O)Cc1c(Cl)nc(-c2ccccc2)n1Cc1ccccc1 | 161 to 163 °C |
| NC(=O)CCn1c2ccc(O)cc2c2c3c(c(-c4c(Cl)cccc4Cl)cc21)C(=O)NC3=O | 327 to 329 °C |
| Cc1nnc2nc(-c3ccccc3F)cnn12 | 227 to 229 °C |
| CN(C)c1ccc(-c2[nH]nc3c2C(=O)c2c(NC(=O)CN4CCOCC4)cccc2-3)cc1 | > 300 °C |
| O=C(O)c1cn(C2CC2)c2c(F)c(F)c(F)c(F)c2c1=O | 179 to 180 °C |
| CCCCCN(CCC12CC3CC(CC(C3)C1)C2)C(=O)NCCCn1ccnc1 | 97 to 100 °C |
| O=C(NCc1cc(Br)cc2[nH]c(=O)c(=O)[nH]c12)C(O)c1ccccc1 (stereo not drawn) | > 280 °C |
| O=C(/C=C/c1ccccc1Sc1ccc(Cl)cc1Cl)NCCCCO | 68 to 71 °C |
| C=C1N(c2ccc(Cl)cc2)C(=O)OC12CCN(C(=O)N1CCN(CCO)CC1)CC2 | 185 to 186 °C |
| CN1CCN(NS(=O)(=O)c2cc([N+](=O)[O-])c(Cl)s2)CC1 | 91 °C |
| OCc1ccccc1C(F)(F)C(F)(F)c1ccccc1 | 80 to 81 °C |
| N#Cc1cc(Oc2ccc3c(C(=O)Nc4cccc(C(F)(F)F)c4)cccc3c2)ncn1 | 167 °C |

More lines, now with the values ahead:

| melting point | SMILES |
| --- | --- |
| 84 to 86 °C | COC(=O)c1cc2c(Cl)cccc2s1 |
| 156 to 157 °C | COC(=O)c1ccc(/C=C/c2nc(-c3ccccc3)c(C)s2)cc1 |
| 122 to 128 °C | C[C@@H](n1cnc2ccccc2c1=O)[C@](O)(Cn1cncn1)c1ccc(F)cc1F |
| 118 to 120 °C | O=c1ccc2ccc(OCC(O)CO)cc2o1 (stereo not drawn) |
| 40 to 41 °C | COC(=O)Cc1ccc(C#N)cc1 |
| 248 to 251 °C | CCCOc1ccc(C#N)cc1-c1ccc(C#N)c(=O)[nH]1 |
| 99 to 100 °C | COC(=O)CCC(=O)c1ccc(-c2ccc(Cl)cc2)o1 |
| 163 to 168 °C | Nc1cc(=O)[nH]c(=O)n1Cc1ccncc1 |
| 90 to 100 °C | COc1cc(-c2cc(=Nc3c(C)cc(C)cc3C)n(C)c(=O)n2C)ccc1O |
| 166 to 168 °C | Cc1c(NC(=O)c2ccc(-c3ccccc3)cc2F)ccc2cc(CN3CCCC3)cnc12 |
| 122 to 125 °C | CC(=O)OCC1CC(OC(C)=O)C(n2c(Br)nc3cc(Cl)c(Cl)cc32)C1 (stereo not drawn) |
| 165 to 167 °C | C=Cc1cc(CNC(=O)NCc2ccc(C(C)(C)C)cc2)cc(Cl)c1NS(C)(=O)=O |
| 86.8 to 90 °C | COc1cc(C=O)ccc1OCC(=O)OC(C)(C)C |
| 239 to 240 °C | CCOC(=O)C(=O)Nc1ccc2c(c1)OCC(=O)N2 |
| 121 to 122 °C | COCCOc1cc(N)c(Cl)cc1C(=O)OC |
| 116 to 127 °C | CCCCCN(C(=O)OC(C)(C)C)c1nc(N(C)Cc2ccccc2)c2ncn(CC(=O)O)c2n1 |
| 177 to 179 °C | CCCCn1c(=O)c2c(N(C)C)n[nH]c2n(Cc2ccccc2)c1=O |
| 73 to 75 °C | CCCCC1(CCCC)CCc2c(OCc3ccccc3C(N)=O)cccc2C1O (stereo not drawn) |
| 61 °C | CCCCCCCCc1ccc(CCC(NC(C)=O)(C(=O)OCC)C(=O)OCC)cc1 |
| 228 to 229 °C | O=C(Nc1ccc(-n2nc(C(F)(F)F)cc2C(F)(F)F)cc1)c1cc(Cl)cnc1Cl |
| 226 to 228 °C | CCc1nn(Cc2nnc(N)o2)c(CC)c1Oc1cc(Cl)cc(Cl)c1 |
| 110 to 111 °C | COc1ccc(C=NO)c(OC)c1C |
| 105 to 106 °C | CC(C)(C)OC(=O)n1ccc2cc(-c3ccccc3)ccc21 |
| 62 to 63 °C | CCOC(=O)CCCOc1ccc2c(c1)C(=O)CCC2 |

| melting point | SMILES |
| --- | --- |
| 218 to 220 °C | COCc1nc2c(OC)ccc(C(=O)Cc3ccncc3)c2[nH]1 |
| 86 to 88 °C | CCOC(=O)C(C(=O)OC(C)(C)C)c1c([N+](=O)[O-])cc([N+](=O)[O-])c2ccccc12 (stereo not drawn) |
| 52 to 55 °C | CCN1CCN(C)C[C@@H](NC(=O)c2cc(Br)c(NC)nc2OC)C1 |
| 187 °C | COc1cc(Nc2nccc(-c3cc(OC)c(OC)c(OC)c3)n2)cc(OC)c1OC |
| 101 to 102 °C | Cc1cc2c(Cl)c(C#N)cnc2s1 |
| 159 to 160 °C | CCn1ncc(C(=O)c2ccc(S(C)(=O)=O)c(OCCOC)c2Cl)c1O |
| 92 to 93 °C | COC(=O)c1ccc(OCCOc2ccccc2)cc1 |
| 127 °C | CCOC(=O)C1(c2cccs2)CC(CC)=NNC1C (stereo not drawn) |
| 120 to 124 °C | Cc1ccc2cccc(OCc3cc(N(C)C(=O)CN4C(=O)c5ccccc5C4=O)ccc3Cl)c2n1 |
| 120 to 122 °C | CCOc1cc2c(cc1OC)C(=O)CC(C)(C)O2 |
| 83 to 84 °C | CCN(CC)S(=O)(=O)c1ccc(Oc2ccc(S(=O)(=O)C(F)(F)F)cc2)cc1 |
| 130 °C | COCCCS(=O)(=O)NC(=O)/C=C/c1ccc(OC(C)C)cc1Oc1ncc(C(F)(F)F)cc1Cl |
| 127 to 128 °C | O=[N+]([O-])c1cc(NCCO)c(Cl)cc1NCCO |
| 92 to 94 °C | C=CCONC(=O)c1c([Si](C)(C)C)ccc(Cl)c1Cl |
| 208 to 210 °C | O=C(O)c1cnc2cc([N+](=O)[O-])ccc2n1 |
| 162 to 163 °C | COC(=O)c1sc(N)cc1NC(C)=O |
| 103 to 106 °C | CCC1(CC)C(=O)ON(C(=O)c2cc(OC)c(OC)c(OC)c2)C1=O |
| 52 °C | CCOC(=O)c1cc(Oc2ccccc2)ccc1OC |
| 156 °C | Cc1c2c(c(Br)c(C(C)C)c1OCc1ccccc1)OC(C)(C)C2 |
| 148 to 149 °C | COc1ccc2cc(S(N)(=O)=O)oc2c1 |
| 131 to 133 °C | CCN(CC)CCOc1ccc2ncn(/C=C/C(=O)OC)c(=O)c2c1 |
| 91 to 93 °C | CCOC(=O)c1cc(OCC)c(OC(C)C)cc1N |
| 89 to 91 °C | CCOc1nc2cccc(CC)c2c(=O)o1 |
| 157 to 159 °C | CCOC(=O)C1=C(C)NC(CSCCl)=C(C(=O)OCC)C1c1cccc([N+](=O)[O-])c1 (stereo not drawn) |

Source: a melting point compilation (Tetko et al.; mined from patent text by program, amines drawn as free bases though some values may be those of a salt)
